SMILES strings stand for the structures.

In this experiment the test system is p-ERK pathway in H358 cells. Nature of the experiment: p-ERK pathway inhibition in H358 cells (Advanced phospho-ERK (Thr202/Tyr204) cellular kit, HTRF). In kind it is cell-based. Particulars: Homo sapiens, NCI-H358, 1 h compound incubation. The protocol:
The effect of the compounds of the present invention on H358 cell p-ERK pathway was assessed by Advanced phospho-ERK (Thr202/Tyr204) cellular kit method.
The experimental procedures were summarized as follows: H358 cells (ATCC, CRL-5807) were cultured in RPMI1640 (ThermoFisher, A1049101) complete medium containing 10% FBS (Gibco, 10100147) and 100 U/mL penicillin-streptomycin mixed solution (Gibco, 15140163). When the coverage of the cells in the culture vessel reached 80-90%, the cells were pipetted and seeded in a 96-well plate (Corning, 3599) at 50000 cells/well (90 µL RPMI1640 complete medium), and the plate was left to stand for 5 min, cultured in an incubator at 37 °C with 5% CO2 for 6 h, replaced with a serum-free RPMI1640, and starved overnight.
After incubation overnight, 10 µL of a diluted test compound was added to each well using a multi-channel pipette, and the 96-well plate was cultured in an incubator at 37 °C with 5% CO2 for 1 h. The supernatant was poured. The cells were washed once with PBS. 50 µL of a lysis buffer (Advanced phospho-ERK (Thr202/Tyr204) cellular kit, 64AERPEH) was added to each well. The plate was shaken at room temperature at 450 rpm for 1 h. After the cells were completely lysed, 16 µL of the supernatant was added to a 384-well plate (PE, 6007299), mixed energy donor Eu and energy acceptor D2 (D2/Eu = 1:1) were added, and the plate was incubated at room temperature for 4 h. HTRF on the microplate reader was selected for plate reading, Ratio = Signal 665 nm/Signal 620 nm × 10^4. In this experiment, the cell-free group (replaced with 1640 medium) was used as the 100% inhibition group, and the compound-free group in which the cell was added was used as the 0% inhibition group.
The inhibition percentage of H358 cell p-ERK pathway by the compounds of the present invention could be calculated by the following formula: [formula]
IC50 values of the compounds were calculated from 8 concentration points using XLfit (ID Business Solutions Ltd., UK) software by the following formula: Y = Bottom + (Top−Bottom)/(1+10^(∧)((logIC50−X)×slopefactor)) [formula]
Y is the inhibition percentage, X is the logarithmic value of the concentration of the test compound, Bottom is the minimum inhibition percentage, Top is the maximum inhibition percentage, and slope factor is the slope coefficient of the curve. The default fitted curve was used to fit the slope of the S-shaped curve to determine the IC50 value. Table 2. Results of p-ERK inhibition test by the compounds of the present invention
On the technique in general: In TR-FRET formats the signal depends on donor and acceptor labels being close together.
A word on the IC50: it is the midpoint of a concentration-inhibition curve. Lower therefore signals greater potency. Compound `Cc1nc(N[C@H](C)c2cccc(S(F)(F)(F)(F)F)c2)c2cn(N3CCOCC3)c(=O)cc2n1` [Example 18, (R)-2-methyl-6-morpholine-4-((1-(3-(pentafluoro-λ^6-sulfanyl)phenyl)ethyl)amino) pyrido[4,3-d]pyrimidine-7(6H)-one] registered an IC50 of 0.0798 µM.
Then `Cc1nc(N[C@H](C)c2cccc(C(F)F)c2F)c2cn(C3(CF)CC3)c(=O)c(N3C[C@H]4C[C@@H]3CO4)c2n1` [Example 53, 8-((1R,4R)-2-oxa-5-azabicyclo[2.2.1]heptan-5-yl)-4-(((R)-1-(3-(difluoromethyl)-2-fluorophenyl)ethyl)amino)-6-(1-(fluoromethyl)cyclopropyl)-2-methylpyrido[4,3-d]pyrimidine-7(6H)-one], with 0.176 µM; and `Cc1nc(N[C@H](C)c2cccc(C(F)F)c2F)c2cn(C3(CF)CC3)c(=O)c(N3C[C@H]4CC[C@@H](C3)O4)c2n1` [Example 54, 8-((1R,5S)-8-oxa-3-azabicyclo[3.2.1]octan-3-yl)-4-(((R)-1-(3-(difluoromethyl)-2-fluorophenyl)ethyl)amino)-6-(1-(fluoromethyl)cyclopropyl)-2-methylpyrido[4,3-d]pyrimidine-7(6H)-one], with 0.124 µM; and `Cc1nc(N[C@H](C)c2cccc(C(F)F)c2F)c2cn(C3(CF)CC3)c(=O)c(NC[C@@H]3CCO3)c2n1` [Example 105, 4-(((R)-1-(3-(difluoromethyl)-2-fluorophenyl)ethyl)amino)-6-(1-(fluoromethyl)cyclopropyl)-2-methyl-8-((((S)-oxetan-2-yl)methyl)amino)pyrido[4,3-d]pyrimidine-7(6H)-one], with 0.0984 µM.
As to `COc1c(=O)n(C2(CF)CCN(C(C)=O)C2)cc2c(N[C@H](C)c3cccc(C(F)F)c3F)nc(C)nc12` (stereo partly drawn) [Example 8, 6-(1-acetyl-3-(fluoromethyl)pyrrolidin-3-yl)-4-(((R)-1-(3-(difluoromethyl)-2-fluorophenyl)ethyl)amino)-8-methoxy-2-methylpyrido[4,3-d]pyrimidine-7(6H)-one], the half-inhibitory concentration (IC50) amounted to 0.0929 µM.
To `Cc1nc(N[C@H](C)c2cccc(C(F)F)c2F)c2cn(C3(CF)CC3)c(=O)c(N3CC(C)(C#N)C3)c2n1` [Example 75, (R)-1-(4-((1-(3-(difluoromethyl)-2-fluorophenyl)ethyl)amino)-6-(1-(fluoromethyl)cyclopropyl)-2-methyl-7-oxo-6,7-dihydropyrido[4,3-d]pyrimidin-8-yl)-3-methylazetidine-3-carbonitrile] belongs 0.171 µM; to `Cc1nc(N[C@H](C)c2cccc(C(F)F)c2F)c2cn(C3(CF)CC3)c(=O)c(N3Cc4cn(C5CC5)nc4C3)c2n1` [Example 106], 0.0484 µM.
To `Cc1nc(N[C@H](C)c2cccc(C#N)c2C)c2cn(N3CCOCC3)c(=O)c(N3CCN4C(=O)OC[C@H]4C3)c2n1` [Example 99, 2-methyl-3-((R)-1-((2-methyl-6-morpholine-7-oxo-8-((R)-3-oxotetrahydro-3H-oxazolo[3,4-a]pyrazin-7(1H)-yl)-6,7-dihydropyrido[4,3-d]pyrimidin-4-yl)amino)ethyl)benzonitrile] belongs 0.112 µM; to `Cc1nc(N[C@H](C)c2cccc(C(F)F)c2F)c2cn(C3(CF)CC3)c(=O)c(N3C[C@@H](F)[C@@H](F)C3)c2n1` [Example 107, 4-(((R)-1-(3-(difluoromethyl)-2-fluorophenyl)ethyl)amino)-8-((3S,4R)-3,4-difluoropyrrolidin-1-yl)-6-(1-(fluoromethyl)cyclopropyl)-2-methylpyrido[4,3-d]pyrimidine-7(6H)-one], 0.0469 µM.
Then `Cc1nc(N[C@H](C)c2cccc(C(F)F)c2F)c2cn(C3(CF)CC3)c(=O)c(-c3c(C)noc3C)c2n1` [Example 123, (R)-4-((1-(3-(difluoromethyl)-2-fluorophenyl)ethyl)amino)-8-(3,5-dimethylisoxazol-4-yl)-6-(1-(fluoromethyl)cyclopropyl)-2-methylpyrido[4,3-d]pyrimidine-7(6H)-one], with 0.111 µM; and `Cc1nc(N[C@H](C)c2cccc(C(F)F)c2F)c2cn(C3(CF)CC3)c(=O)c(-c3cnc4cnn(C)c4c3)c2n1` [Example 129, (R)-4-((1-(3-(difluoromethyl)-2-fluorophenyl)ethyl)amino)-6-(1-(fluoromethyl)cyclopropyl)-2-methyl-8-(1-methyl-1H-pyrazolo[4,3-b]pyridin-6-yl)pyrido[4,3-d]pyrimidine-7(6H)-one], with 0.127 µM; and `COc1c(=O)n(N2CCOCC2)cc2c(N[C@H](C)c3cccc([N+](=O)[O-])c3C)nc(C)nc12` [Example 24, (R)-4-((1-(2-methyl-3-nitrophenyl)ethyl)amino)-8-methoxy-2-methyl-6-morpholinepyrido[4,3-d]pyrimidine-7(6H)-one], with 0.0704 µM.
For `Cc1nc(N[C@H](C)c2cccc(C(F)F)c2F)c2cn(C3(CF)CC3)c(=O)c(N3CCC(C)(C#N)CC3)c2n1` [Example 173], inhibition was half-maximal at 0.0983 µM (IC50).
To `Cc1nc(N[C@H](C)c2cccc(C(F)F)c2F)c2cn(C3(CF)CC3)c(=O)c(Nc3cnn(C)c3)c2n1` [Example 93, (R)-4-((1-(3-(difluoromethyl)-2-fluorophenyl)ethyl)amino)-6-(1-(fluoromethyl)cyclopropyl)-2-methyl-8-((1-methyl-1H-pyrazol-4-yl)amino)pyrido[4,3-d]pyrimidine-7(6H)-one] belongs 0.0903 µM.
Then `Cc1nc(N[C@H](C)c2cccc(C(F)F)c2F)c2cn(C3(CF)CC3)c(=O)c(N3CCC(F)(F)CC3)c2n1` [Example 169], with 0.121 µM; and `Cc1nc(N[C@H](C)c2cccc(C(F)F)c2F)c2cn(C3(CF)CC3)c(=O)c(-n3cc(C#N)cn3)c2n1` [Example 101, (R)-1-(4-((1-(3-(difluoromethyl)-2-fluorophenyl)ethyl)amino)-6-(1-(fluoromethyl)cyclopropyl)-2-methyl-7-oxo-6,7-dihydropyrido[4,3-d]pyrimidin-8-yl)-1H-pyrazole-4-carbonitrile], with 0.0501 µM.
To `Cc1nc(N[C@H](C)c2cccc(C(F)F)c2F)c2cn(N3CCOCC3)c(=O)c(OCC3(C)COC3)c2n1` [Example 121, (R)-4-((1-(3-(difluoromethyl)-2-fluorophenyl)ethyl)amino)-2-methyl-8-((3-methloxetan-3-yl)methoxy)-6-morpholinylpyrido[4,3-d]pyrimidine-7(6H)-one] belongs 0.107 µM.
Consider `Cc1nc(N[C@H](C)c2cccc(C(F)F)c2F)c2cn(C3(CF)CC3)c(=O)c(N3CCN(CC#N)CC3)c2n1` [Example 134, (R)-2-(4-(4-((1-(3-(difluoromethyl)-2-fluorophenyl)ethyl)amino)-6-(1-(fluoromethyl)cyclopropyl)-2-methyl-7-oxo-6,7-dihydropyrido[4,3-d]pyrimidin-8-yl)piperazin-1-yl)acetonitrile], for which the IC50 amounted to 0.0491 µM.
As for `Cc1nc(N[C@H](C)c2cccc(C(F)F)c2F)c2cn(C3(CF)CC3)c(=O)c(C(F)(F)F)c2n1` [Example 2, (R)-4-((1-(3-(difluoromethyl)-2-fluorophenyl)ethyl)amino)-6-(1-(fluoromethyl)cyclopropyl)-2-methyl-8-(trifluoromethyl)pyrido[4,3-d]pyrimidine-7(6H)-one], inhibition was half-maximal at 0.127 µM (IC50).
`Cc1nc(N[C@H](C)c2cccc(C(F)F)c2F)c2cn(C3(CF)CC3)c(=O)c(N3C4CCC3COC4)c2n1` [Example 44, 8-(3-oxa-8-azabicyclo[3.2.1]oct-8-yl)-4-(((R)-1-(3-(difluoromethyl)-2-fluorophenyl)ethyl)amino)-6-(1-(fluoromethyl)cyclopropyl)-2-methylpyrido[4,3-d]pyrimidine-7(6H)-one]: half-maximal inhibition (IC50) was put at 0.131 µM.
Then `Cc1nc(N[C@H](C)c2cccc(C#N)c2C)c2cn(N3CCOCC3)c(=O)c(-c3ccnc(N4CCOCC4)c3)c2n1` [Example 163], with 0.0439 µM; and `Cc1nc(N[C@H](C)c2cccc(C(F)F)c2F)c2cn(N3CCOCC3)c(=O)c(N3CCO[C@@H](C)C3)c2n1` [Example 79], with 0.0793 µM; and `CNc1c(=O)n(C2(CF)CC2)cc2c(N[C@H](C)c3cccc(C(F)F)c3F)nc(C)nc12` [Example 77], with 0.0772 µM.
Then `Cc1nc(N[C@H](C)c2cccc(C(F)F)c2F)c2cn(C3(CF)CC3)c(=O)c(N3CC(S(C)(=O)=O)C3)c2n1` [Example 111, (R)-4-((1-(3-(difluoromethyl)-2-fluorophenyl)ethyl)amino)-6-(1-(fluoromethyl)cyclorol-2-methyl-8-3-methylsulfonylazetidin-1-yl)pyrido[4,3-d]pyrimidine-7(6H)-one], with 0.11 µM.

These data come from patent EP4417607A1, “HETEROCYCLIC COMPOUND AS SOS1 INHIBITOR AND USES THEREOF” (Nanjing Zaiming Pharmaceutical Co., Ltd., priority 2021, dated 2023).
